Earlier results as cited in patent US9629386B2, “Nutrition composition” (AJINOMOTO CO., INC., priority 2008, dated 2017).

Tested on: CRP and nutrition condition
Settings: 1.2 g to 11 dialysis patients for 12 weeks

Q: For ω-3 fatty acid, which CRP is on record?
A: did not decrease CRP

Q: And the nutrition condition?
A: did not improve nutrition condition
